Like-named read-outs stand apart in the source and are kept apart here.
How the values were obtained:
[1] = Measurement of water hardness before and after adding softeners (AQUADUR test strips); format: physicochemical
Description: (§1) • Soft water (Milli-Q water), self made hard water and very hard water collected from the field (sample A) were used in the assays. Self made hard water was prepared by adding magnesium sulfate to the tap water (440 mg MgSO4/1 L tap water) to achieve 25° d (˜445 ppm). […] The water softeners were used in concentrations described in Table 2. First, the softeners were added to Sample A, self made hard and soft water samples and the water hardness was determined with test strips (see Table 3). Next, Flipper (0,5%, corresponding to a fatty acid derivative content of 2.4 g/l) was mixed to the different water plus softener solutions and subsequently the samples were sprayed on plants infected with aphids. Additionally, another biological product based on fatty acid derivatives (product Neudosan® Neu available from Certis Europe B.V.) was tested in combination with the softener Slox and a softener based on TSCA(in the following named “Coded” (for concentrations see Table 2) in hard vs soft water against aphids as described above. The efficacy of Neudosan (0,5% and 1% corresponding to a fatty acid derivative content of 2.575 g/l and 5,15 g/1) was compared to the efficacy of Flipper (0,5% and 1% corresponding to a fatty acid derivative content of 2.4 g/l and 4,8 g/1) with and without softeners (see Table 5). • Four single-leaf pepper or cotton plants infected with mixed population of Myzus persicae or Aphis gossypii were used in the bioassays. The infected plants were sprayed with the prepared solutions by using an automatic spraying system machine with integrated residue drying and afterwards incubated in a greenhouse chamber under controlled conditions (25±1° C. and 55±5% RH).

Myzus persicae = test: Aphid spray bioassay on infected pepper plants, insect mortality on day seven post treatment; format: in vivo; settings: day 7
Description: (§2) • The laboratory colonies of Myzus persicae and Aphis gossypii were reared on pea and cotton plants under controlled conditions 25±1° C. and a 55±5% relative humidity. • Experiments were conducted at RT using pepper (Capsicum annuum) for Myzus persicae and cotton (Gossypium herbaceum) for Aphis gossypii.
as §1
(§3) The tests were conducted according to the protocol described in Example 1.

Aphis gossypii = test: Aphid spray bioassay on infected cotton plants, insect mortality on day seven post treatment; format: in vivo
Description: as §2, §1, §3

pepper (Capsicum annuum) = format: in vivo; settings: pepper plants
[2] = tested on: cotton (Gossypium herbaceum); settings: cotton plants
Description: as §2
• Soft water (Milli-Q water), self made hard water and very hard water collected from the field (sample A) were used in the assays. Self made hard water was prepared by adding magnesium sulfate to the tap water (440 mg MgSO4/1 L tap water) to achieve 25° d (˜445 ppm). […] The water softeners were used in concentrations described in Table 2. First, the softeners were added to Sample A, self made hard and soft water samples and the water hardness was determined with test strips (see Table 3). Next, Flipper (0,5%, corresponding to a fatty acid derivative content of 2.4 g/l) was mixed to the different water plus softener solutions and subsequently the samples were sprayed on plants infected with aphids. […]

[3] = field collected water Sample A (>25 °D before), softener at % printed in row
[4] = field collected water Sample A (>445 ppm before), converted 1 °D = 17.8 ppm
[5] = self made hard water (25 °D before), softener at % printed in row
[6] = self made hard water (445 ppm before), converted 1 °D = 17.8 ppm
[7] = soft water (0 ppm before), converted 1 °D = 17.8 ppm
[8] = soft water (Milli-Q, 0 °D before), softener at % printed in row
[9] = 0.5% Flipper + named softener (% printed in row) in self made hard water
[10] = 0.5% Flipper + named softener (% printed in row) in soft water
[11] = 0.5% Flipper + named softener (% printed in row) in self made hard water, cotton, day 7
[12] = 0.5% Flipper + named softener in self made hard water
[13] = 0.5% Flipper + named softener in soft water

Row | Structure (SMILES) | Water hardness after adding softener [1, 3] [°D] | Water hardness after adding softener [1, 4] [ppm] | Water hardness after adding softener [1, 5] [°D] | Water hardness after adding softener [1, 6] [ppm] | Water hardness after adding softener [1, 7] [ppm] | Water hardness after adding softener [1, 8] [°D] | Efficacy of 0.5% Flipper against Myzus persicae, after adding softeners (Myzus persicae; [9]) [%] | Efficacy of 0.5% Flipper against Myzus persicae, after adding softeners (Myzus persicae; [10]) [%] | Efficacy of 0.5% Flipper against Aphis gossypii, after adding softeners (Aphis gossypii; [11]) [%] | Efficacy of 0.5% Flipper against Aphis gossypii, after adding softeners (Aphis gossypii; in vivo) | PTX (pepper (Capsicum annuum); [12]) | PTX (pepper (Capsicum annuum); [13]) | PTX [2, 12] | PTX [2, 13] | Efficacy of 0.5% Flipper against Aphis gossypii, after adding softeners (Aphis gossypii; 0.5% Flipper + named softener (% printed in row) in soft water, cotton, day 7) [%]
1 | O=C(O)CN(CCN(CC(=O)O)CC(=O)O)CC(=O)O [EDTA, Ethylene diamine tetraacetate] | 0 | 0 | 0 | 0 | 0 | 0 | 81.25 | 97 | 65 | 72.5 (slight % | strong | Strong | slight | 72.5 (slight | –
2 | O=C([O-])CC(O)(CC(=O)[O-])C(=O)[O-].[Na+].[Na+].[Na+] [TSCA, Trisodium citric acid] | 20 | 356 | 20 | 356 | 0 | 0 | 55 | 67.5 | 55 | – | – | – | – | – | 70
